Measurements as given in patent US10772876B2, “Enhancers of Notch signaling and the use thereof in the treatment of cancers and malignancies medicable by upregulation of Notch” (XENIOPRO GmbH, priority 2016, dated 2020).
“Also recorded” adds a separate entry of the source.

Tests used:
[1] = tested on: Notch1 full-length receptor; experiment: Notch1 full-length receptor driven luciferase reporter assay (HeLa co-culture with DLL4 ligand expressing HeLa cells); assay type: cell-based; conditions: for Notch signaling relative to the DMSO control: control treatments, FIG. 1
Procedure: As used herein, the term “enhancing Notch signaling” refers to an effect on a cellular Notch-driven luciferase reporter assay, by which the Notch signaling enhancing properties of the compounds of the invention are determined. The Notch-driven luciferase reporter assay consists of HeLa cells engineered to express the Notch1 full length receptor, and to harbor a CSL-driven firefly luciferase expression construct as well as a Notch independent Renilla luciferase construct for the purpose of normalisation. These cells are co-cultured with engineered HeLa cells expressing the Notch ligand D114 to induce Notch signaling, thus to induce the expression of the firefly luciferase enzyme. The intensity of a luciferase-driven reporter signal is considered as a measure for Notch signaling.
A compound is considered as having an effect of enhancing Notch signaling if said compound results relative to DMSO in ≥1.5-fold increase, preferably in ≥2.0-fold increase, more preferably in ≥2.5-fold increase and most preferably in ≥3.0-fold increase of the Luciferase-driven reporter signal in the frame of the named Notch-dependent luciferase reporter assay.
FIG. 1. […] The indicated compounds were tested at 10 μM concentration in a Notch-driven luciferase reporter assay. HeLa cells had been engineered to express the Notch1 full-length receptor, the firefly luciferase (expression dependent on Notch signaling) and the renilla luciferase (expression independent on Notch signaling). Cells were co-cultured in a 96 well-plate with DLL4 ligand expressing HeLa cells to induce Notch signaling and simultaneously treated with DMSO or indicated compounds for 20 h. Notch signaling activation was then quantified by measuring luciferase-dependent luminescence intensities upon treatment with appropriate substrates. The firefly values were normalized against the renilla values to obtain the relative luminescence intensities (represented by the bars).
(§1) A brief description of the assay is given in the description of FIG. 1. If not stated differently, all assays were performed using a Notch1 full-length receptor driven reporter system. Values are normalized against DMSO. a) V126 (black rhombi) was tested at the indicated concentrations. […] The control readouts for DMSO (black), CB103 (white), V126 at 10 μM and V126 at 1 μM (diagonal lines) were taken as usual after incubation for 20 h. c) V126 was tested in combination with an equimolar amount of the y-secretase inhibitor DAPT or the Notch inhibitor CB103 at 10 μM concentration each. d) V126 and the indicated compounds were tested at 10 μM in a luciferase reporter assay driven by the Notch2 receptor isoform. e) V126 and the indicated compounds were tested at 10 μM in a luciferase assay driven by the constitutively active form of the Notch1 receptor (N1ICD, Notch1 intracellular domain).

[2] = tested on: N1ICD, Notch1 intracellular domain; experiment: Luciferase assay driven by the constitutively active form of the Notch1 receptor (N1ICD); assay type: cell-based; conditions: 10 μM, FIG. 2e
Procedure: as §1
(§2) To rule out that V126 is directly enhancing the activity of the luciferase enzyme, the Notch reporter assay was challenged by applying V126 treatment immediately prior to the readout. […] Moreover, the Notch-enhancing activity of V126 could be partially and completely rescued by combinational equimolar treatment with the γ-secretase inhibitor DAPT or the Notch inhibitor CB103, respectively, further confirming the ability of V126 to upregulate Notch signaling (FIG. 2c).

[3] = tested on: Notch2 full-length receptor; experiment: Luciferase reporter assay driven by the Notch2 receptor isoform (N2FL); assay type: cell-based; conditions: 10 μM, FIG. 2d
Procedure: as §1, §2

[4] = tested on: splenic marginal zone B-cells (MZB); experiment: Splenic B-cell compartments in mice by flow cytometry; assay type: in vivo, C57BL/6N mice; conditions: 25 mg/kg intraperitoneal once a day for one week
Procedure: C57BL/6N mice were treated with 25 mg/kg V126 by intraperitoneal injection once a day for one week. a) Spleen cells were analyzed by flow cytometry. Shown are two representative plots of control (Ctrl., n=5) and V126 (n=4) treatments displaying the B220+cell (total B-cell) population. The gates encircle the respective MZB, FoB, and TB fractions with the corresponding numbers indicating the relative proportions (in percentage) of cells out of the B220+population. b) The bar diagrams quantify the relative MZB percentages from a) (left), and the recalculated total numbers of splenic MZBs (right). FoBs: Follicular B-cells, TBs: Transitional B-cells, see text.
Notch activation in the skin is known to drive differentiation of keratinocytes resulting in the induction of differentiation markers such as involucrin (C. Nowell, Cold Spring Harb Perspect Med. 2013, 3, 12), (G. P. Dotto, Oncogene 2008, 27, 5115-5123). […] In the spleen, marginal zone B-cells (MZBs) and follicular B-cells (FoBs) are the two main types of mature B-cells, both of which develop from the same precursor cells, namely the transitional B-cells (TBs). […] The impact of V126 on the different B-cell compartments in these mice was analyzed by flow cytometry on splenocytes, showing that V126 was capable to double the number of MZBs as compared to the control, whereas the FoB numbers were not affected (FIG. 4).

[5] = tested on: CD4 T cells; experiment: IFN-γ production and secretion of CD4 T cells under Th1 polarizing conditions; assay type: cell-based, mice; conditions: 10 μM, 96 hours, intracellular IFN-γ and Elisa of culture supernatants
Procedure: FIGS. 5A-5C The Notch signaling enhancing compound V126 induces increased IFNy production and secretion in vitro. CD4 T cells isolated from naive CS7B/6 mice were cultured on plate bound α-CD3/α-CD28 (both 0.25μg/m1) under Th1 polarizing conditions (rlL-12, (5ng/ml) and anti-IL-4 (clone:11B11; […])) in the presence of DMSO, DAPT as y-secretase inhibitor and V126 at 10 μM. 96 hours after initiation of the culture, intracellular IFN-y levels a) and CD25 surface expression b) were assessed on PMA/lonomycin stimulated CD4 T cells. c) IFN-y cytokine levels were assessed in culture supernatants by Elisa under the same conditions as in a) and b).

[6] = tested on: SCC13 cells; experiment: Involucrin protein expression in SCC13 cells (Western Blot); assay type: cell-based, human; conditions: 10 μM, 48 h, β-actin as loading control
Procedure: Cells were treated with DMSO or V126 at a concentration of 10 μM for 48 h. Total cell lysates were applied on Western Blot analysis using β-actin as loading control.
Notch activation in the skin is known to drive differentiation of keratinocytes resulting in the induction of differentiation markers such as involucrin (C. Nowell, Cold Spring Harb Perspect Med. 2013, 3, 12), (G. P. Dotto, Oncogene 2008, 27, 5115-5123). […] In the spleen, marginal zone B-cells (MZBs) and follicular B-cells (FoBs) are the two main types of mature B-cells, both of which develop from the same precursor cells, namely the transitional B-cells (TBs). Notch2 signaling was reported to play a crucial role in the development of MZBs (S. Pillai, Nat. Rev. Immunol. 2009, 9, 767-777) and increased Notch2 signaling in the spleen leads to an expansion of the MZB compartment (F. Hampel, Blood 2011, 118, 24, 6321-6331). In contrast, the development of FoBs is not dependent on Notch signaling. To evaluate the effect of V126 in vivo, C57BL/6N mice were injected intraperitoneally with 25 mg/kg V126 once a day for one week. The impact of V126 on the different B-cell compartments in these mice was analyzed by flow cytometry on splenocytes, showing that V126 was capable to double the number of MZBs as compared to the control, whereas the FoB numbers were not affected (FIG. 4).

[7] = molecular target: T1, luciferase enzyme (Photinus pyralis, UniProt P08659); experiment: Direct influence on luciferase enzyme activity (treatment 5 min prior to readout of the Notch reporter assay); assay type: cell-based; conditions: 10 μM and 1 μM, 5 min prior to the readout, FIG. 2b
T1 construct: expressed in transfected cells; host or cells: HeLa cells engineered with Notch1 full-length receptor, firefly and Renilla luciferase constructs, co-cultured with DLL4-expressing HeLa cells
Procedure: as §1, §2

T1 sequence (P08659 whole entry): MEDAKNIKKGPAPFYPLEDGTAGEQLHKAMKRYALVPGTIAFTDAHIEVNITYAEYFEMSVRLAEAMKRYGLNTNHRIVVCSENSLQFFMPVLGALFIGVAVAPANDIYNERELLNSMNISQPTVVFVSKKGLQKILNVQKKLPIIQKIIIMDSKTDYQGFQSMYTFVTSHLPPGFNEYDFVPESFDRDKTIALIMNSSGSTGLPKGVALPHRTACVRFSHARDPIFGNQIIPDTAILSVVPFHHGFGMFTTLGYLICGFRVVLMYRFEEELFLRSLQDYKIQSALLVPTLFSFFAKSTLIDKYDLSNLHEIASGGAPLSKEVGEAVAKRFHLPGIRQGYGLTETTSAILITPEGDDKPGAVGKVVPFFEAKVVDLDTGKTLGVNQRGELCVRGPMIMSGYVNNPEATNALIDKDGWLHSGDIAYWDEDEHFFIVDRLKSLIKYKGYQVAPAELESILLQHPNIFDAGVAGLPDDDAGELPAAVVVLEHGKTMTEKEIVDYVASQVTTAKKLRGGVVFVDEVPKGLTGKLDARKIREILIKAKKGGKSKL

CC(C)(C)c1ccc(Oc2ccc(N)cn2)cc1 [CB103, reference compound]
Notch signaling relative to the DMSO control ([1]; 20 h): decrease in Notch signaling

C[C@H](NC(=O)Cc1cc(F)cc(F)c1)C(=O)N[C@H](C(=O)OC(C)(C)C)c1ccccc1 [DAPT, reference compound]
Notch signaling relative to the DMSO control ([1]; 20 h): decrease in Notch signaling

CC(C)(C)c1ccc(Oc2ccc(C(=O)O)cc2)cc1 [V126, 4-(4-(tert-Butyl)phenoxy)benzoic acid]
enhancement of N1ICD driven signaling [2]: enhance the signaling cascade taking place downstream of ligand-mediated activation of Notch signaling | enhancement of Notch2 receptor driven signaling [3]: enhance signaling derived from different Notch receptor isoforms | FoB (follicular B-cell) numbers [4]: not affected | number of splenic MZBs compared to the control [4]: increase; also recorded: double | IFNγ production and secretion [5]: increased | expression of the differentiation marker involucrin at the protein level [6]: increased protein expression | luciferase values after short-term treatment immediately prior to the readout [7]: in the range of the DMSO control level | luciferase values after treatment for 20 h in the very same readout ([1]; 10 μM and 1 μM, 20 h, FIG. 2b): expected upregulation | rescue of the Notch-enhancing activity by combinational equimolar treatment with CB103 ([1]; V126 plus Notch inhibitor CB103, 10 μM each, FIG. 2c): completely | rescue of the Notch-enhancing activity by combinational equimolar treatment with DAPT ([1]; V126 plus γ-secretase inhibitor DAPT, 10 μM each, FIG. 2c): partially | enhancement of Notch signaling ([1]; concentration of 1↔M, FIG. 2a): strongly enhanced Notch signaling

CCCC(CCC)C(=O)O [valproic acid, reference compound]
effect on Notch signaling ([1]; concentrations up to 40 μM, FIG. 2a): did not show any effect
